Measured values: PMC7351026, “Serum Half-Lives for Short- and Long-Chain Perfluoroalkyl Acids after Ceasing Exposure from Drinking Water Contaminated by Firefighting Foam” (Environmental Health Perspectives, 2020)
“And” between values parts separate entries of the source, which are not always exact repeats. Identical values can stand only once. Like-named read-outs stand apart in the source and are kept apart here. Marks after values point to notes of the source that are not given here.

Legend:
[1] = Population average serum elimination rate and half-life (linear mixed model, one compartment, first-order); settings: for Reduction of half-life estimation after subtraction of background levels: sensitivity analysis vs model with original serum levels; for half-life: human, serum, oral, Half-life (95% CI)
Method in brief: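 Log-transformed serum PFAS fitted with a linear mixed model (random intercept only; age and sex as covariates), assuming one-compartment first-order elimination. Time counted in days from clean-water supply to first sampling. k is the negative average slope; half-life = ln2/k; sensitivity run after subtracting reference-population median background.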

[2] = Urine/serum ratio in paired samples; assay type: in vivo, human; settings: mean of four paired samplings per subject, 17 airport employees
Protocol: Urinary PFAS concentrations were specific-gravity adjusted. The ratio of urine and serum concentration for each PFAS (urine/serum ratio) at each sampling was calculated based on PFAS concentrations in paired serum and urine samples from 17 employees. Then the personal average urine/serum ratio was calculated using the mean value of repeated samplings for each employee.

[3] = cited from earlier work
[4] = Individual serum elimination rate and half-life (linear regression per employee); settings: individual estimate; for half-life: human, serum, oral, HL (half-life);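 as to HL (half-life): half-life in years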
Protocol: Serum PFAS concentrations were log-transformed. Time was calculated as the elapsed days between supply of clean bottled water and […] blood sampling. We assumed one compartment, first-order elimination kinetics. In this kinetic model, the body is considered as one homogeneous volume in which mixing is instantaneous and from which PFAS could be absorbed, transferred, and eliminated according to the rate of elimination that is proportional to the concentration of PFAS in the body. Two methods were used to estimate serum elimination rate constant (k) and half-life for each PFAS:
Method 2: For estimation of individual k, linear regression was used to derive the slope ( β ) of the logarithm of serum concentrations vs. time for each employee. The negative value of the slope ( −β ) for each individual was equivalent to the individual k, and individual serum elimination half-life was calculated as ln2/k for each PFAS. If β was positive (i.e., PFAS concentrations tended to increase over the five samplings), the half-life was not calculated.

[5] = Background serum PFAS levels in reference population from Karlshamn; assay type: in vivo, human; settings: reference group from Karlshamn without PFAS contamination in drinking water, N=58, sampled 2016
Description: For comparison with Swedish general background PFAS serum levels, we referred to the PFAS levels observed in a reference population from Karlshamn, a municipality in southern Sweden without PFAS contamination in the municipal drinking water. In 2016, 226 individuals were sampled. Fifty-nine individuals were randomly selected for analyzing other short-chain PFAS than the legacy ones, using the same modified method as for the airport employees. Fifty-eight individuals within the same age range as the airport employees (i.e., >22 years of age ) were included in the comparison. For a detailed description of this population see Li et al. ([2018]).

[6] = design: method as in Olsen et al. 2009; settings: occupationally exposed workers; ref Olsen et al. 2009; cited from earlier work
[7] = design: method as in Zhang et al. 2015; settings: ref Zhang et al. 2015, cited from earlier work
[8] = population average, model with original serum levels, age and sex as covariates
[9] = population average, model with serum levels after subtraction of background exposure (sensitivity analysis)
[10] = general Swedish population (Ronneby, 106 Swedes) with high exposure through drinking water, 2 y follow-up from 6 months after clean water, ref Li et al. 2018

## O=S(=O)(O)C(F)(F)C(F)(F)C(F)(F)C(F)(F)C(F)(F)C(F)(F)C(F)(F)C(F)(F)F [L-PFOS, linear perfluorooctane sulfonic acid]
[1]; [8]
  Constant elimination rate (95% CI): 0.24 (0.07, 0.4) yearly
  Half-life (95% CI): 2.91 (1.71, 9.63) year
[1]; [9]
  Constant elimination rate (95% CI): 0.41 (0.11, 0.71) yearly
  Half-life (95% CI): 1.69 (0.98, 6.04) year
[1]
  Reduction of half-life estimation after subtraction of background levels: 42%
[2]
  Personal average urine/serum ratio, median (range): 0.00092 (0.000035–0.0056)
[3]; [10]
  Average half-life: 3.4 y
[4]; subject 1, 5 samples
  Elimination rate: −0.2 yearly
[4]; subject 2, 5 samples
  Elimination rate: 0.4 yearly
  HL (half-life): 1.7 year
[4]; subject 3, 5 samples
  Elimination rate: 0.5 yearly
  HL (half-life): 1.3 year
[4]; subject 4, 5 samples
  Elimination rate: −0.3 yearly
[4]; subject 5, 5 samples
  Elimination rate: 0.6 yearly
  HL (half-life): 1.2 year
[4]; subject 6, 4 samples
  Elimination rate: 0.04 yearly
  HL (half-life): 17 year
[4]; subject 7, 5 samples
  Elimination rate: 0.006 yearly
[4]; subject 8, 5 samples
  Elimination rate: −0.4 yearly
[4]; subject 9, 5 samples
  Elimination rate: 0.4 yearly
  HL (half-life): 1.8 year
[4]; subject 10, 5 samples
  Elimination rate: −0.2 yearly
[4]; subject 11, 5 samples
  Elimination rate: 0.1 yearly
  HL (half-life): 4.7 year
[4]; subject 12, 5 samples
  Elimination rate: 0.8 yearly
  HL (half-life): 0.9 year
[4]; subject 13, 5 samples
  Elimination rate: 0.2 yearly
  HL (half-life): 3.7 year
[4]; subject 14, 4 samples
  Elimination rate: 0.3 yearly
  HL (half-life): 2.0 year
[4]; subject 15, 5 samples
  Elimination rate: 0.5 yearly
  HL (half-life): 1.3 year
[4]; subject 16, 5 samples
  Elimination rate: 0.6 yearly
  HL (half-life): 1.2 year
[4]; subject 17, 5 samples
  Elimination rate: 0.3 yearly
  HL (half-life): 2.1 year
[5]
  PFAS serum level, median (range): 3.0 (0.30–9.8) ng/mL

## O=S(=O)(O)C(F)(F)C(F)(F)C(F)(F)C(F)(F)F [PFBS, perfluorobutane sulfonic acid]
[1]; [8]
  Constant elimination rate (95% CI): 5.96 (4.65, 7.27) yearly
  Half-life (95% CI): 0.12 (0.1, 0.15)^d year
[3]; occupationally exposed workers followed up to 180 d, ref Olsen et al. 2009
  Half-life (geometric mean): 25.8 days
[6]
  Serum level, average: 397 ng/mL
[4]; subject 1, 5 samples
  Elimination rate: 3.2 yearly
  HL (half-life): 0.2 year
[4]; subject 2, 5 samples
  Elimination rate: 4.0 yearly
  HL (half-life): 0.2 year
[4]; subject 3, 5 samples
  Elimination rate: 5.1 yearly
  HL (half-life): 0.1 year
[4]; subject 4, 5 samples
  Elimination rate: 3.1 yearly
  HL (half-life): 0.2 year
[4]; subject 5, 5 samples
  Elimination rate: 3.0 yearly
  HL (half-life): 0.2 year
[4]; subject 6, 4 samples
  Elimination rate: 2.9 yearly
  HL (half-life): 0.2 year
[4]; subject 7, 5 samples
  Elimination rate: 6.2 yearly
  HL (half-life): 0.1 year
[4]; subject 8, 5 samples
  Elimination rate: 4.4 yearly
  HL (half-life): 0.2 year
[4]; subject 9, 5 samples
  Elimination rate: 11.7 yearly
  HL (half-life): 0.1 year
[4]; subject 10, 5 samples
  Elimination rate: 3.8 yearly
  HL (half-life): 0.2 year
[4]; subject 11, 5 samples
  Elimination rate: 7.1 yearly
  HL (half-life): 0.1 year
[4]; subject 12, 5 samples
  Elimination rate: 5.4 yearly
  HL (half-life): 0.1 year
[4]; subject 13, 5 samples
  Elimination rate: 6.2 yearly
  HL (half-life): 0.1 year
[4]; subject 14, 4 samples
  Elimination rate: 10.7 yearly
  HL (half-life): 0.1 year
[4]; subject 15, 5 samples
  Elimination rate: 5.7 yearly
  HL (half-life): 0.1 year
[4]; subject 16, 5 samples
  Elimination rate: 3.6 yearly
  HL (half-life): 0.2 year
[4]; subject 17, 5 samples
  Elimination rate: 10.4 yearly
  HL (half-life): 0.1 year

## O=C(O)C(F)(F)C(F)(F)C(F)(F)C(F)(F)C(F)(F)C(F)(F)C(F)(F)F [PFOA, perfluorooctanoic acid]
[1]; [8]
  half-life: 646 days
  Constant elimination rate (95% CI): 0.39 (0.3, 0.49) yearly
[1]; [9]
  half-life: 541 days
  Constant elimination rate (95% CI): 0.47 (0.35, 0.58) yearly
[1]; population average, linear mixed model with original serum levels, 17 airport employees after end of drinking-water exposure
  Average serum half-life: 1.77 y
[1]
  Reduction of half-life estimation after subtraction of background levels: 16%
[2]
  Personal average urine/serum ratio, median (range): 0.0032 and 0.0032 (0.00066–0.0067)
[3]; 26 retired fluorochemical production workers, 5-y follow-up, ref Olsen et al. 2007
  Average half-life: 3.8 y
[3]; 138 Germans, 2-y follow-up, ref Brede et al. 2010
  half-life: 3.3 y
[3]; 200 Americans, 1-y follow-up, ref Bartell et al. 2010
  half-life: 2.3 y
[3]; [10]
  Average half-life: 2.7 y
[4]; subject 1, 5 samples
  half-life: 877 days
  Elimination rate: 0.3 yearly
[4]; subject 2, 5 samples
  half-life: 1060 days
  Elimination rate: 0.2 yearly
[4]; subject 3, 5 samples
  half-life: 438 days
  Elimination rate: 0.6 yearly
[4]; subject 4, 5 samples
  half-life: 840 days
  Elimination rate: 0.3 yearly
[4]; subject 5, 5 samples
  half-life: 804 days
  Elimination rate: 0.3 yearly
[4]; subject 6, 4 samples
  half-life: 1060 days
  Elimination rate: 0.2 yearly
[4]; subject 7, 5 samples
  half-life: 584 days
  Elimination rate: 0.4 yearly
[4]; subject 9, 5 samples
  half-life: 694 days
  Elimination rate: 0.4 yearly
[4]; subject 10, 5 samples
  half-life: 767 days
  Elimination rate: 0.3 yearly
[4]; subject 11, 5 samples
  half-life: 548 days
  Elimination rate: 0.5 yearly
[4]; subject 12, 5 samples
  half-life: 365 days
  Elimination rate: 0.7 yearly
[4]; subject 13, 5 samples
  half-life: 584 days
  Elimination rate: 0.4 yearly
[4]; subject 14, 4 samples
  half-life: 584 days
  Elimination rate: 0.4 yearly
[4]; subject 15, 5 samples
  half-life: 402 days
  Elimination rate: 0.6 yearly
[4]; subject 16, 5 samples
  half-life: 986 days
  Elimination rate: 0.3 yearly
[4]; subject 17, 5 samples
  half-life: 438 days
  Elimination rate: 0.6 yearly
[4]; subject 8, 5 samples
  Elimination rate: 0.007 yearly
[5]; human, serum, read-out: PFAS serum level, median (range)
  concentration at 2016 calendar year of sampling: 1.5 ng/mL
[7]; nonpregnant women
  Urine/serum ratio: 0.0028
[7]; pregnant women
  Urine/serum ratio: 0.0011
